± gives the expanded uncertainty stated by the source.
Conditions: Liquid

CCCCCCCCCCO [decan-1-ol]
Conditions | mass density [kg/m3]
313.12 K, 1025 kPa | 816.79 ± 0.61
313.12 K, 2002 kPa | 817.46 ± 0.63
313.12 K, 2995 kPa | 817.98 ± 0.65
313.12 K, 4013 kPa | 818.58 ± 0.67
313.12 K, 5004 kPa | 819.21 ± 0.69
313.12 K, 5994 kPa | 819.86 ± 0.71
313.12 K, 7003 kPa | 820.47 ± 0.73
313.12 K, 7997 kPa | 821.19 ± 0.75
313.12 K, 9000 kPa | 821.73 ± 0.77
313.12 K, 9994 kPa | 822.38 ± 0.79
313.12 K, 10995 kPa | 823.02 ± 0.81
313.12 K, 11995 kPa | 823.67 ± 0.83
313.12 K, 12997 kPa | 824.2 ± 0.85
313.12 K, 13996 kPa | 824.82 ± 0.87
313.12 K, 14998 kPa | 825.42 ± 0.89
313.12 K, 15990 kPa | 826.01 ± 0.91
313.12 K, 16995 kPa | 826.61 ± 0.93
313.12 K, 17986 kPa | 827.14 ± 0.95
313.12 K, 18992 kPa | 827.76 ± 0.97
313.12 K, 19993 kPa | 828.31 ± 0.99
313.12 K, 20999 kPa | 828.88 ± 1
313.12 K, 21509 kPa | 829.19 ± 1
323.09 K, 1002 kPa | 809.87 ± 0.62
323.09 K, 2011 kPa | 810.59 ± 0.64
323.09 K, 3019 kPa | 811.21 ± 0.66
323.09 K, 4014 kPa | 811.83 ± 0.68
323.09 K, 5006 kPa | 812.47 ± 0.7
323.09 K, 6012 kPa | 813.18 ± 0.72
323.09 K, 7002 kPa | 813.8 ± 0.74
323.09 K, 8003 kPa | 814.42 ± 0.76
323.09 K, 9008 kPa | 815.1 ± 0.78
323.09 K, 10006 kPa | 815.7 ± 0.8
323.09 K, 11000 kPa | 816.38 ± 0.82
323.09 K, 12002 kPa | 816.97 ± 0.84
323.09 K, 13002 kPa | 817.64 ± 0.86
323.09 K, 14000 kPa | 818.21 ± 0.89
323.09 K, 15017 kPa | 818.84 ± 0.91
323.09 K, 16003 kPa | 819.4 ± 0.93
323.09 K, 17015 kPa | 820.02 ± 0.95
323.09 K, 18006 kPa | 820.61 ± 0.97
323.09 K, 19007 kPa | 821.24 ± 0.99
323.09 K, 20007 kPa | 821.84 ± 1
323.09 K, 21002 kPa | 822.41 ± 1
323.09 K, 22014 kPa | 823.01 ± 1.1
333.04 K, 1046 kPa | 802.82 ± 0.62
333.04 K, 2018 kPa | 803.5 ± 0.64
333.04 K, 3008 kPa | 804.21 ± 0.67
333.04 K, 4012 kPa | 804.88 ± 0.69
333.04 K, 5059 kPa | 805.62 ± 0.71
333.04 K, 6016 kPa | 806.29 ± 0.73
333.04 K, 7022 kPa | 807 ± 0.75
333.04 K, 8014 kPa | 807.64 ± 0.77
333.04 K, 9015 kPa | 808.34 ± 0.8
333.04 K, 10015 kPa | 808.97 ± 0.82
333.04 K, 11019 kPa | 809.64 ± 0.84
333.04 K, 12007 kPa | 810.31 ± 0.86
333.04 K, 13019 kPa | 810.96 ± 0.88
333.04 K, 14019 kPa | 811.6 ± 0.91
333.04 K, 15014 kPa | 812.24 ± 0.93
333.04 K, 16021 kPa | 812.88 ± 0.95
333.04 K, 17026 kPa | 813.5 ± 0.97
333.04 K, 18023 kPa | 814.11 ± 1
333.04 K, 19018 kPa | 814.72 ± 1
333.04 K, 20025 kPa | 815.35 ± 1.1
333.04 K, 21020 kPa | 815.94 ± 1.1
333.04 K, 22032 kPa | 816.58 ± 1.1
342.98 K, 1058 kPa | 795.63 ± 0.63
342.98 K, 2045 kPa | 796.4 ± 0.65
342.98 K, 3022 kPa | 797.12 ± 0.68
342.98 K, 4035 kPa | 797.9 ± 0.7
342.98 K, 5028 kPa | 798.63 ± 0.72
342.98 K, 6030 kPa | 799.37 ± 0.74
342.98 K, 7023 kPa | 800.07 ± 0.77
342.98 K, 8028 kPa | 800.78 ± 0.79
342.98 K, 9062 kPa | 801.51 ± 0.81
342.98 K, 10035 kPa | 802.22 ± 0.83
342.98 K, 11029 kPa | 802.92 ± 0.86
342.98 K, 12064 kPa | 803.64 ± 0.88
342.98 K, 13023 kPa | 804.31 ± 0.9
342.98 K, 14042 kPa | 805 ± 0.93
342.98 K, 15022 kPa | 805.66 ± 0.95
342.98 K, 16022 kPa | 806.36 ± 0.97
342.98 K, 17021 kPa | 807 ± 1
342.98 K, 18034 kPa | 807.7 ± 1
342.98 K, 19025 kPa | 808.35 ± 1.1
342.98 K, 20038 kPa | 808.98 ± 1.1
342.98 K, 21018 kPa | 809.62 ± 1.1
342.98 K, 22035 kPa | 810.28 ± 1.1
352.86 K, 1069 kPa | 788.44 ± 0.64
352.86 K, 2043 kPa | 789.24 ± 0.66
352.86 K, 3040 kPa | 790.04 ± 0.69
352.86 K, 4048 kPa | 790.78 ± 0.71
352.86 K, 5038 kPa | 791.59 ± 0.73
352.86 K, 6043 kPa | 792.34 ± 0.76
352.86 K, 7038 kPa | 793.09 ± 0.78
352.86 K, 8039 kPa | 793.84 ± 0.8
352.86 K, 9040 kPa | 794.57 ± 0.83
352.86 K, 10038 kPa | 795.32 ± 0.85
352.86 K, 11032 kPa | 796.04 ± 0.87
352.86 K, 12032 kPa | 796.74 ± 0.9
352.86 K, 13040 kPa | 797.47 ± 0.92
352.86 K, 14046 kPa | 798.18 ± 0.95
352.86 K, 15043 kPa | 798.89 ± 0.97
352.86 K, 16037 kPa | 799.59 ± 1
352.86 K, 17040 kPa | 800.26 ± 1
352.86 K, 18046 kPa | 800.95 ± 1.1
352.86 K, 19040 kPa | 801.63 ± 1.1
352.86 K, 20064 kPa | 802.32 ± 1.1
352.86 K, 21048 kPa | 802.96 ± 1.1
352.86 K, 22049 kPa | 803.62 ± 1.2
362.89 K, 1077 kPa | 781.02 ± 0.65
362.89 K, 2027 kPa | 781.83 ± 0.67
362.89 K, 3089 kPa | 782.69 ± 0.7
362.89 K, 4047 kPa | 783.49 ± 0.72
362.89 K, 5061 kPa | 784.29 ± 0.75
362.89 K, 6060 kPa | 785.12 ± 0.77
362.89 K, 7041 kPa | 785.91 ± 0.79
362.89 K, 8049 kPa | 786.7 ± 0.82
362.89 K, 9049 kPa | 787.47 ± 0.84
362.89 K, 10052 kPa | 788.25 ± 0.87
362.89 K, 11045 kPa | 788.99 ± 0.89
362.89 K, 12044 kPa | 789.75 ± 0.92
362.89 K, 13054 kPa | 790.54 ± 0.94
362.89 K, 14053 kPa | 791.25 ± 0.97
362.89 K, 15052 kPa | 792 ± 0.99
362.89 K, 16056 kPa | 792.77 ± 1
362.89 K, 17063 kPa | 793.47 ± 1.1
362.89 K, 18062 kPa | 794.2 ± 1.1
362.89 K, 19062 kPa | 794.91 ± 1.1
362.89 K, 20068 kPa | 795.64 ± 1.1
362.89 K, 21072 kPa | 796.35 ± 1.2
362.89 K, 22063 kPa | 797.03 ± 1.2
